Assay results published in publication PMC12540964 (AMB Express, 2025).
Values after ≈ are worked out from the molar mass of the structure shown. Read-outs that look alike come from different tables or passages of the source. Marks after values point to notes of the source that are not given here.

Assays:
DPPH test = details: radical scavenging, 30 min, 517 nm
Procedure: This assay used DPPH radical to assess the free radical-scavenging ability. Samples dissolved in methanol were mixed with a methanolic solution of DPPH and incubated, in triplicate, at ambient temperature for 30 min (El Omari et al. [2023]). Absorbance was read at 517 nm, and the percentage of DPPH radical scavenging and the inhibition in IC50 (μg/mL) were calculated. Trolox served as a positive control.

α-amylase = target: T1, α-amylase (Bacillus licheniformis, UniProt P06278); assay: α-Amylase inhibitory test; format: biochemical
T1 construct: purchased
Procedure: (§1) The α-glucosidase from Saccharomyces cerevisiae and the α-amylase from Bacillus licheniformis were also obtained from reliable commercial sources. Additional reagents were carefully selected from reputable suppliers. Mueller–Hinton agar was sourced from Biokar in Beauvais, France. All other chemicals used are of analytical grade.
Initially, 250 μL of each sample was mixed with 250 μL of sodium phosphate buffer (SPB) (0.02 M & pH = 6.9) and α-amylase enzyme (240 U/mL). The blend was then incubated at 37 °C/20 min. Then, a 1% starch solution (250 μL) in SPB was added, followed by incubation at 37 °C/15 min. Thereafter, 1 mL of dinitrosalicylic acid (DNS) was also added, and the mix was heated for 10 min (Bouyahya et al. [2019a], [b]; Omari et al. [2023]). The solution was then diluted with 2 mL of sterile water, and the OD (540 nm) was measured. […] The % of inhibition was calculated using the formula: [drawing 1]

elastase = elastase (Sus scrofa, UniProt P00772); assay: Elastase inhibitory assay; format: biochemical; details: 410 nm
Procedure: Then, 200 µL of an elastase solution prepared in Tris–HCl buffer (0.2 M, pH 8.0) was mixed with 50 µL of each sample. Following a 15-min incubation at 25 °C, 200 µL of N-succinyl-Ala-Ala-p-nitroanilide solution was added, and the reaction mixtures were homogenized. Absorbances were recorded at 410 nm after an additional 20-min incubation at 25 °C. The data obtained were used to determine the IC50 and to calculate the percent inhibition of elastase.

[1] = ABTS radical scavenging activity
Procedure: The ABTS cation radical was generated from the reaction between ABTS solution and potassium persulfate with Trolox as a positive control. The assay was performed in triplicate and expressed in IC50 (μg/mL) (El Omari et al. [2023]).

α-glucosidase = target: T2, α-glucosidase (Saccharomyces cerevisiae, UniProt P53341); assay: α-Glucosidase inhibitory test; format: biochemical
T2 construct: purchased
Procedure: as §1
The inhibition of α-glucosidase action was assessed using the pNPG substrate as previously detailed (Bouyahya et al. [2021]). A mixture of 200 μL of the samples and 100 μL SPB (0.1 M & pH = 6.7), mixed with α-glucosidase (0.1 U/mL), underwent incubation at 37 °C/10 min. Next, 200 μL of pNPG (1 mM) solution in SPB (0.1 M & pH = 6.7) was added, then incubated at 37 °C/30 min. The measurement of α-glucosidase inhibition was done by measuring the OD (405 nm) after adding 1 mL of Na2CO3 (0.1 M).

[2] = tested on: Escherichia coli (ATCC 25922); assay: Microdilution method (MIC, MBC); format: cell-based
Procedure: (§2) The strains Escherichia coli (ATCC 25922), Pseudomonas aeruginosa NIH, Listeria monocytogenes (ATCC 13932), and Staphylococcus aureus (ATCC 29213) were used. After overnight incubation at 30 °C, the inhibition zone diameters (IZD) were measured in millimeters (mm). Next, the microdilution method served to assess the minimum inhibitory concentration (MIC) and minimum bactericidal concentration (MBC) (Bouyahya et al. [2020a], [b]).

[3] = tested on: Staphylococcus aureus (ATCC 29213); assay: Microdilution method (MIC, MBC); format: cell-based
Procedure: as §2

[4] = tested on: Listeria monocytogenes (ATCC 13932); assay: Microdilution method (MIC, MBC); format: cell-based; details: for MBC/MIC: 1 suggests bactericidal; for MBC / MIC: Listeria monocytogenes
Procedure: as §2

[5] = tested on: Pseudomonas aeruginosa NIH; assay: Microdilution method (MIC, MBC); format: cell-based; details: for MBC/MIC: 1 suggests bactericidal; for MBC / MIC: Pseudomonas aeruginosa; for MBC: read-out: MBC (minimum bactericidal concentration); for MIC: read-out: MIC (minimum inhibitory concentration)
Procedure: as §2

[6] = tested on: Escherichia coli (ATCC 25922); assay: Disk diffusion method (inhibition zone diameter); format: cell-based; details: E. coli, Gram-negative
Procedure: as §2

[7] = tested on: Staphylococcus aureus (ATCC 29213); assay: Disk diffusion method (inhibition zone diameter); format: cell-based; details: S. aureus, Gram-positive
Procedure: as §2

[8] = tested on: Listeria monocytogenes (ATCC 13932); assay: Disk diffusion method (inhibition zone diameter); format: cell-based; details: L. monocytogenes, Gram-positive
Procedure: as §2

[9] = tested on: Pseudomonas aeruginosa NIH; assay: Disk diffusion method (inhibition zone diameter); format: cell-based; details: P. aeruginosa, Gram-negative
Procedure: as §2

tyrosinase = tyrosinase (Agaricus bisporus, UniProt C7FF04); design: method as in El Khoury et al. [2019]; details: carvacrol from Origanum EOs; ref El Khoury et al. [2019]; cited from earlier work
[10] = Reducing ferric power test (FRAP); details: 700 nm
Procedure: CEEO, carvacrol, menthol, and tricosane were mixed with phosphate buffer and potassium ferricyanide solution, incubated, and treated with trichloroacetic acid. After centrifugation, the upper layer was analyzed for absorbance (700 nm) with Trolox serving as a reference. The assay was done in triplicate, and the IC50 (μg/mL) was calculated (El Omari et al. [2023]).

[11] = Elastase IC50, N-succinyl-Ala-Ala-p-nitroanilide
[12] = ATCC25922, E. coli, read-out: MBC (minimum bactericidal concentration)
[13] = ATCC25922, E. coli, read-out: MIC (minimum inhibitory concentration)
[14] = ATCC29213, S. aureus, read-out: MBC (minimum bactericidal concentration)
[15] = ATCC29213, S. aureus, read-out: MIC (minimum inhibitory concentration)
[16] = ATCC13932, L. monocytogenes, read-out: MBC (minimum bactericidal concentration)
[17] = ATCC13932, L. monocytogenes, read-out: MIC (minimum inhibitory concentration)

T1 sequence (P06278 30-512): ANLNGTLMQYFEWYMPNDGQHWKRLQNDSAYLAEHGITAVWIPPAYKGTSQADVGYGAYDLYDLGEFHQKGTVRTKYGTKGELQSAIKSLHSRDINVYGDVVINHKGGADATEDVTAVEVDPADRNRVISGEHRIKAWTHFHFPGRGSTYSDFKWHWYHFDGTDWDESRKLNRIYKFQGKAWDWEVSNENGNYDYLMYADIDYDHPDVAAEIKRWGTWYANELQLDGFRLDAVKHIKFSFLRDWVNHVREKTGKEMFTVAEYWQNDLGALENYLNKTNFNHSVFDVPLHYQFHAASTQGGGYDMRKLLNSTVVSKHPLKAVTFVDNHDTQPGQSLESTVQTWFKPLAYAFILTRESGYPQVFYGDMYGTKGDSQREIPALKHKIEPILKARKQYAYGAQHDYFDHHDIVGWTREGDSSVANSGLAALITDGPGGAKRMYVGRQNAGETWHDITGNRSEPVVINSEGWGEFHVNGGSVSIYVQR
Chain of elastase (P00772 27-266): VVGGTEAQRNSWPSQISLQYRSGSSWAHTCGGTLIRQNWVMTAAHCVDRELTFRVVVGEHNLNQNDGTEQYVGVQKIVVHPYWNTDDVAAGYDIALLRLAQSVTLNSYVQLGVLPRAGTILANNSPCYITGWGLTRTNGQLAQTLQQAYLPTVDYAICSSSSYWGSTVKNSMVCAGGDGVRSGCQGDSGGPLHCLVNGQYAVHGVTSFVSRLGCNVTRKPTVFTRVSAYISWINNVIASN
T2 sequence (P53341 whole entry): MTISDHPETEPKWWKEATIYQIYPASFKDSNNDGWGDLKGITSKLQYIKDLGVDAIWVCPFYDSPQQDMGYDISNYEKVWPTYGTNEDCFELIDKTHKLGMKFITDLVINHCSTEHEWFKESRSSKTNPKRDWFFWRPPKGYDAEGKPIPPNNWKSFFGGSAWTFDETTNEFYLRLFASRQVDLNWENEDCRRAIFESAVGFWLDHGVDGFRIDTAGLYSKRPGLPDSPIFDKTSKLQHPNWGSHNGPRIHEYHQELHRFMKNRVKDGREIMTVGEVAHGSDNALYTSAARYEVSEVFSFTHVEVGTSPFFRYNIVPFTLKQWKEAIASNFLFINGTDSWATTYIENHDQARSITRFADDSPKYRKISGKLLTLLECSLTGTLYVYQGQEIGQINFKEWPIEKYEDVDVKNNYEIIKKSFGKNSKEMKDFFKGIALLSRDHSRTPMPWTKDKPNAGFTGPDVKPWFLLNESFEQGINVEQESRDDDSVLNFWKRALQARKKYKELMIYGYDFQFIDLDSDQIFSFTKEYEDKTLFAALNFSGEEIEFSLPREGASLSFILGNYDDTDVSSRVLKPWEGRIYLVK
Chain of tyrosinase (C7FF04 1-392): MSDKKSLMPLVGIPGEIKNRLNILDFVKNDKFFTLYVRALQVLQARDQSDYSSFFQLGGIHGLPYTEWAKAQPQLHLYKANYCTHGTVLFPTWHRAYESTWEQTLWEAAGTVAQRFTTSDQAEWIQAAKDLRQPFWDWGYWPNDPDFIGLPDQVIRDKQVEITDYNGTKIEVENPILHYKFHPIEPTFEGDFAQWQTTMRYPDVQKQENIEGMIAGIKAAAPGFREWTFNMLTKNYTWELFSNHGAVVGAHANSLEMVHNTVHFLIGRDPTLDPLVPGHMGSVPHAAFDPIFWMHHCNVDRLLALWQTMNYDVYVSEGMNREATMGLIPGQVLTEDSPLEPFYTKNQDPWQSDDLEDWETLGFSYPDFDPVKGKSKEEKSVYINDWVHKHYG

| SMILES | DPPH IC50 (DPPH test) | IC50 (α-amylase) [mM] | IC50 (elastase; [11]) [mM] | ABTS IC50 [1] | IC50 (α-glucosidase) [mM] | MBC/MIC ([4]; L. monocytogenes) | MBC/MIC ([5]; P. aeruginosa) | IZD (inhibition zone diameter) [6] | IZD (inhibition zone diameter) [7] | IZD (inhibition zone diameter) [8] | IZD (inhibition zone diameter) [9] | FRAP IC50 [10] | MBC [2, 12] [µg/mL] | MIC [2, 13] [µg/mL] | MBC [3, 14] [µg/mL] | MIC [3, 15] [µg/mL] | MBC [4, 16] [µg/mL] | MIC [4, 17] [µg/mL] | MBC ([5]; P. aeruginosa) [µg/mL] | MIC ([5]; P. aeruginosa) [µg/mL] | also measured |
| --- | --- | --- | --- | --- | --- | --- | --- | --- | --- | --- | --- | --- | --- | --- | --- | --- | --- | --- | --- | --- | --- |
| Cc1ccc(C(C)C)cc1O [Carvacrol, carvacrol] | 48.06 ± 4.31^h µg/mL | 3.77 | 0.83 | 81.41 ± 4.31^b µg/mL | 1.34 | 1 | 1 | 31.33 ± 2.51^b mm | 35.33 ± 1.52^a mm | 33 ± 2.64^a mm | 29 ± 2.64^c mm | 59.96 ± 2.60^f µg/mL | – | – | – | – | – | – | – | – | MBC ([2]; ATCC25922, read-out: MBC (minimum bactericidal concentration)): 0.25 µg/mL (≈ 1.66 µM); MIC ([2]; ATCC25922, read-out: MIC (minimum inhibitory concentration)): 0.125 µg/mL (≈ 0.832 µM); MBC ([3]; ATCC29213, read-out: MBC (minimum bactericidal concentration)): 0.025 µg/mL (≈ 0.166 µM); MIC ([3]; ATCC29213, read-out: MIC (minimum inhibitory concentration)): 0.0125 µg/mL (≈ 0.0832 µM); MBC ([4]; ATCC13932, read-out: MBC (minimum bactericidal concentration)): 0.125 µg/mL (≈ 0.832 µM); MIC ([4]; ATCC13932, read-out: MIC (minimum inhibitory concentration)): 0.125 µg/mL (≈ 0.832 µM); MBC [5]: 0.5 µg/mL (≈ 3.33 µM); MIC [5]: 0.5 µg/mL (≈ 3.33 µM); tyrosinase inhibition (tyrosinase): 56.55% |
| O=C(N[C@H](CO)[C@H](O)c1ccc([N+](=O)[O-])cc1)C(Cl)Cl [Chloramphenicol, reference compound] | – | – | – | – | – | – | – | – | – | – | – | – | 32 (≈ 99 µM) | 8 (≈ 24.8 µM) | 32 (≈ 99 µM) | 8 (≈ 24.8 µM) | 32 (≈ 99 µM) | 16 (≈ 49.5 µM) | 64 (≈ 198 µM) | 64 (≈ 198 µM) | – |
| CC1CCC(C(C)C)C(O)C1 (stereo not shown) [Menthol, menthol] | 58.89 ± 4.03^a µg/mL | 3.02 | 0.717 | 71.76 ± 3.16^a µg/mL | 1.17 | – | – | 14 ± 2^a mm | 32 ± 2.64^a mm | 26.33 ± 1.52^b mm | 18 ± 4.5^b mm | 57.93 ± 15.63^f µg/mL | 2 (≈ 12.8 µM) | 0.5 (≈ 3.2 µM) | 1 (≈ 6.4 µM) | 0.5 (≈ 3.2 µM) | 0.5 (≈ 3.2 µM) | 0.25 (≈ 1.6 µM) | 1 (≈ 6.4 µM) | 0.25 (≈ 1.6 µM) | – |
| CCCCCCCCCCCCCCCCCCCCCCC [Tricosane, tricosane] | 91.03 ± 0.3^b µg/mL | 1.19 | – | 120.34 ± 2.97 µg/mL | 0.592 | 1 | 1 | 20.67 ± 2.08^C mm | 29 ± 4.58^a mm | 31.67 ± 4.04^b mm | 17 ± 2.51^b mm | 103.9 ± 2.48 µg/mL | 1 (≈ 3.08 µM) | 0.25 (≈ 0.77 µM) | 0.5 (≈ 1.54 µM) | 0.125 (≈ 0.385 µM) | 0.25 (≈ 0.77 µM) | 0.25 (≈ 0.77 µM) | 0.5 (≈ 1.54 µM) | 0.5 (≈ 1.54 µM) | IC50 (elastase; N-succinyl-Ala-Ala-p-nitroanilide, read-out: Elastase IC50 (converted)): 0.384 mM |
| Cc1c(C)c2c(c(C)c1O)CCC(C)(C(=O)O)O2 (stereo not shown) [Trolox, reference compound] | 34.12 ± 2.13^h µg/mL | – | – | 55.25 ± 4.19^b µg/mL | – | – | – | – | – | – | – | 54.74 ± 3.85^f µg/mL | – | – | – | – | – | – | – | – | – |
